Results published in patent US20230113037A1 (Bayer Aktiengesellschaft, priority 2019, published 2023).
Read-outs that look alike come from different tables or passages of the source.

Tests used:
AHR [1] = target: T1, AHR (Mus musculus, UniProt P30561); assay: In vitro assay 3: antagonism in mouse cell line (AHR transactivation, firefly luciferase reporter, kynurenic acid prestimulated); format: cell-based
T1 sequence (P30561 1-848 P471L/N533S/M589L): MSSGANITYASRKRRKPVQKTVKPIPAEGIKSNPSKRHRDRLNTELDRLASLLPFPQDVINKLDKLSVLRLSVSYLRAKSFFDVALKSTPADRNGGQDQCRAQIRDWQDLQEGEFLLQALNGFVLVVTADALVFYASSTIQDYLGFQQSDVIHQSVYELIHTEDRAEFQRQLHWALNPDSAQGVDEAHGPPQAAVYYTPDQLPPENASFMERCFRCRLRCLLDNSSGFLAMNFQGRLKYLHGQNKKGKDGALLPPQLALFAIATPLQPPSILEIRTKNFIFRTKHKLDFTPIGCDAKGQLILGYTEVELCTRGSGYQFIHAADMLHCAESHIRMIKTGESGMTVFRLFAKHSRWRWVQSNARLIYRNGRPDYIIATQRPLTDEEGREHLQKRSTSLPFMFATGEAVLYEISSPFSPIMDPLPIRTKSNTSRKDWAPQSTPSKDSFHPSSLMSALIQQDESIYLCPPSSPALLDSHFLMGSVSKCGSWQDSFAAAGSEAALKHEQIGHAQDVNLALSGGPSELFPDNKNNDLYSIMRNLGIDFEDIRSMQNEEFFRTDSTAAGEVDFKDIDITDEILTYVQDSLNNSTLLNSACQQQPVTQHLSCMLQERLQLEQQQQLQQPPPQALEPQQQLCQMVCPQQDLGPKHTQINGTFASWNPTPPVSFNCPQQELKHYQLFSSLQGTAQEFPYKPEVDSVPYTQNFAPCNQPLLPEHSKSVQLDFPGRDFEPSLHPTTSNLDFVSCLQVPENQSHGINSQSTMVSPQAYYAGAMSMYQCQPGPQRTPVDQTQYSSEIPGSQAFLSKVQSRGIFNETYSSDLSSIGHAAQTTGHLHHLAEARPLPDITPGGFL
Summary of the method: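 Mouse cells stably carrying a DRE-driven, AHR-inducible firefly luciferase reporter were prestimulated with the endogenous agonist kynurenic acid before compound addition. Luciferase activity was measured by luminescence and normalized to positive and negative controls, with cells lacking kynurenic acid serving as full-inhibition control. Repeat tests are reported as mean or median.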

AHR [2] = target: T2, AHR (Homo sapiens, UniProt P35869); assay: In vitro assay 1: antagonism in human cell line (AHR transactivation, firefly luciferase reporter, kynurenic acid prestimulated); format: cell-based; conditions: AHR Antagonism Human IC50 [M]
T2 construct: U87 MG glioblastoma cells (ATCC #HTB-14) endogenously expressing AHR; endogenous in cells; host or cells: U87 MG glioblastoma cells (ATCC #HTB-14)
T2 sequence (P35869 11-848): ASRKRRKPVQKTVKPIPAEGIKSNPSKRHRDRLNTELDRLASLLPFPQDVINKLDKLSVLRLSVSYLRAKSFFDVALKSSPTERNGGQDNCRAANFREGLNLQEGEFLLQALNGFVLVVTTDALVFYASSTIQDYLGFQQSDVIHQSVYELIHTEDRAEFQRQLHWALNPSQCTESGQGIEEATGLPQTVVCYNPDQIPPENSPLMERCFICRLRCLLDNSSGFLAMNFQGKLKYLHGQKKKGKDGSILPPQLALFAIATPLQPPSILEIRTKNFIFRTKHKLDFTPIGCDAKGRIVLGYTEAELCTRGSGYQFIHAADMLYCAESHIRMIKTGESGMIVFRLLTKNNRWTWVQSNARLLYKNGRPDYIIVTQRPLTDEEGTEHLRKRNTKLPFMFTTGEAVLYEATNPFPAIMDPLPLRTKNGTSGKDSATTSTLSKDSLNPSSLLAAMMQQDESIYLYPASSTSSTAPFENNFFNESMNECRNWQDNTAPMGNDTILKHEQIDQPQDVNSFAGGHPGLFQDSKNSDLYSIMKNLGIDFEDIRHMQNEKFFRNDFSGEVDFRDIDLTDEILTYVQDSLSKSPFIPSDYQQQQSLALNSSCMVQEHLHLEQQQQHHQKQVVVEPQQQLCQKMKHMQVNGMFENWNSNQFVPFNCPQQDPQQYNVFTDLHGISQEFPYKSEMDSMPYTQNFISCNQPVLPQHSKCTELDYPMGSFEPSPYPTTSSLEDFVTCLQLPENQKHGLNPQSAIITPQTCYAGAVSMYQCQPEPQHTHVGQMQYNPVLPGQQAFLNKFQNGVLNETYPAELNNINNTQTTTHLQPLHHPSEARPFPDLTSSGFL
Summary of the method: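 U87 MG glioblastoma cells with endogenous AHR, stably carrying a DRE-driven firefly luciferase reporter and constitutive Renilla reporter, prestimulated with kynurenic acid before compound addition. Firefly and Renilla read by dual luciferase; Renilla flags toxicity; normalized to controls (150 μM kynurenic acid + 5 μM staurosporine as full inhibition); repeat values averaged or median.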

[3] = read-out: AHR Antagonism Mouse IC50, mouse Hepa 1c1c7 cells, 200 μM kynurenic acid, 20 hours
[4] = mouse Hepa 1c1c7 cells, 200 μM kynurenic acid, 20 hours, read-out: AHR Antagonism Mouse IC50
[5] = Hepa 1c1c7 cells, 200 μM kynurenic acid, 20 hours, firefly luciferase reporter, read-out: AHR Antagonism Mouse IC50

Row | Structure (SMILES) | IC50 (AHR [2]) [M] | IC50 (AHR [1]; [4]) [nM] | IC50 (AHR [1]; [5]) [nM] | IC50 (AHR [2]; firefly luciferase reporter) [M] | IC50 (AHR [1]; [3]) [nM]
1 | N#Cc1cccc2c1nc(N[C@@H]1CCCCNC1=O)n1nc(-c3cn[nH]c3)nc21 [Example 765, 5-{[(3R)-2-oxoazepan-3-yl]amino}-2-(1H-pyrazol-4-yl)[1,2,4]triazolo[1,5-c]quinazoline-7-carbonitrile] | 7.79e-07 |  |  |  | 5850
2 | CC(C)Sc1cccc2c1nc(N[C@@H]1CCCCNC1=O)n1nc(-c3cnn(C)c3)nc21 [Example 768] | 1.32e-07 |  |  |  | 1220
3 | CCSc1cccc2c1nc(N[C@@H]1CCCCNC1=O)n1nc(-c3cnn(C)c3)nc21 [Example 769, (3R)-3-{[7-(ethylsulfanyl)-2-(1-methyl-1H-pyrazol-4-yl)[1,2,4]triazolo[1,5-c]quinazolin-5-yl]amino}azepan-2-one] | 2.1e-08 | 151 |  |  | 
4 | CCSc1cccc2c1nc(N[C@@H]1CCCCNC1=O)n1nc(-c3ccc(OC)cc3)nc21 [Example 770, (3R)-3-{[7-(ethylsulfanyl)-2-(4-methoxyphenyl)[1,2,4]triazolo[1,5-c]quinazolin-5-yl]amino}azepan-2-one] | 4.04e-09 | 5.09 |  |  | 
5 | CSc1cccc2c1nc(N[C@@H]1CCCCNC1=O)n1nc(-c3cnn(C(C)C)c3)nc21 [Example 771, (3R)-3-({7-(methylsulfanyl)-2-[1-(propan-2-yl)-1H-pyrazol-4-yl][1,2,4]triazolo[1,5-c]quinazolin-5-yl}amino)azepan-2-one] | 1.02e-08 | 104 |  |  | 
6 | CCn1cc(-c2nc3c4cccc(SC)c4nc(N[C@@H]4CCCCNC4=O)n3n2)c(C)n1 [Example 772, (3R)-3-{[2-(1-ethyl-3-methyl-1H-pyrazol-4-yl)-7-(methylsulfanyl)[1,2,4]triazolo[1,5-c]quinazolin-5-yl]amino}azepan-2-one] | 3.61e-09 | 51.3 |  |  | 
7 | C[C@@H](Nc1nc2ccccc2c2nc(-c3cc(Cl)ccc3OC(F)(F)F)nn12)C(=O)NCCN(C)C [Example 775, N^2-{2-[5-chloro-2-(trifluoromethoxy)phenyl][1,2,4]triazolo[1,5-c]quinazolin-5-yl}-N-[2-(dimethylamino)ethyl]-D-alaninamide] | 3.13e-06 | 743 |  |  | 
8 | C[C@@H](Nc1nc2ccccc2c2nc(-c3cnn(C)c3)nn12)C(=O)NCCN(C)C [Example 776, N-[2-(dimethylamino)ethyl]-N^2-[2-(1-methyl-1H-pyrazol-4-yl)[1,2,4]triazolo[1,5-c]quinazolin-5-yl]-D-alaninamide] | 2.92e-06 | 1020 |  |  | 
9 | C[C@@H](Nc1nc2c(Br)cccc2c2nc(-c3cnn(C)c3)nn12)C(=O)NCCN1CCOCC1 [Example 782, N^2-[7-bromo-2-(1-methyl-1H-pyrazol-4-yl)[1,2,4]triazolo[1,5-c]quinazolin-5-yl]-N-[2-(morpholin-4-yl)ethyl]-D-alaninamide] | 1.29e-07 | 79.7 |  |  | 
10 | C[C@@H](Nc1nc2c(Br)cccc2c2nc(-c3cnn(C)c3)nn12)C(=O)NCCN1CCN(C)CC1 [Example 783, N^2-[7-bromo-2-(1-methyl-1H-pyrazol-4-yl)[1,2,4]triazolo[1,5-c]quinazolin-5-yl]-N-[2-(4-methylpiperazin-1-yl)ethyl]-D-alaninamide] |  |  | 291 | 1.71e-07 | 

The next lines start with results.

Row | IC50 (AHR [2]) [M] | IC50 (AHR [1]; [4]) [nM] | IC50 (AHR [1]; [5]) [nM] | IC50 (AHR [2]; firefly luciferase reporter) [M] | Structure (SMILES) | IC50 (AHR [1]; [3]) [nM]
11 | 1.64e-08 | 47 |  |  | COc1ccc(-c2nc3c4cccc(SC)c4nc(N[C@@H]4CCCCNC4=O)n3n2)cc1 [Example 766, (3R)-3-{[2-(4-methoxyphenyl)-7-(methylsulfanyl)[1,2,4]triazolo[1,5-c]quinazolin-5-yl]amino}azepan-2-one] | 
12 | 2.69e-08 | 47.6 |  |  | COc1ccc(-c2nc3c4cccc(SC(C)C)c4nc(N[C@@H]4CCCCNC4=O)n3n2)cc1 [Example 767, (3R)-3-({2-(4-methoxyphenyl)-7-[(propan-2-yl)sulfanyl][1,2,4]triazolo[1,5-c]quinazolin-5-yl}amino)azepan-2-one] | 
13 | 8.57e-10 | 0.995 |  |  | COc1ccc(-c2nc3c4cccc(Br)c4nc(N[C@H](C)C(=O)N4CCOCC4)n3n2)cc1 [Example 773, (2R)-2-{[7-bromo-2-(4-methoxyphenyl)[1,2,4]triazolo[1,5-c]quinazolin-5-yl]amino}-1-(morpholin-4-yl)propan-1-one] | 
14 | 2.26e-06 | 555 |  |  | C[C@@H](Nc1nc2ccccc2c2nc(-c3ccc(S(C)(=O)=O)cc3)nn12)C(=O)NCCN(C)C [Example 774, N-[2-(dimethylamino)ethyl]-N^2-{2-[4-(methanesulfonyl)phenyl][1,2,4]triazolo[1,5-c]quinazolin-5-yl}-D-alaninamide] | 
15 | 1.8e-09 | 2.21 |  |  | COc1ccc(-c2nc3c4ccccc4nc(N[C@H](C)C(=O)N4CCN(C)CC4)n3n2)cc1 [Example 777, (2R)-2-{[2-(4-methoxyphenyl)[1,2,4]triazolo[1,5-c]quinazolin-5-yl]amino}-1-(4-methylpiperazin-1-yl)propan-1-one] | 
16 | 2.09e-09 | 4.32 |  |  | COc1ccc(-c2nc3c4ccccc4nc(N[C@H](C)C(=O)N4CCOCC4)n3n2)cc1 [Example 778, (2R)-2-{[2-(4-methoxyphenyl)[1,2,4]triazolo[1,5-c]quinazolin-5-yl]amino}-1-(morpholin-4-yl)propan-1-one] | 
17 | 4.3e-09 | 5.96 |  |  | COc1ccc(-c2nc3c4ccccc4nc(N[C@H](C)C(=O)NCCN4CCOCC4)n3n2)cc1 [Example 779, N^2-[2-(4-methoxyphenyl)[1,2,4]triazolo[1,5-c]quinazolin-5-yl]-N-[2-(morpholin-4-yl)ethyl]-D-alaninamide] | 
18 | 4.91e-09 | 5.55 |  |  | COc1ccc(-c2nc3c4cccc(Br)c4nc(N[C@H](C)C(=O)NCCN4CCN(C)CC4)n3n2)cc1 [Example 780, N^2-[7-bromo-2-(4-methoxyphenyl)[1,2,4]triazolo[1,5-c]quinazolin-5-yl]-N-[2-(4-methylpiperazin-1-yl)ethyl]-D-alaninamide] | 
19 | 1.17e-09 | 2.09 |  |  | COc1ccc(-c2nc3c4cccc(Br)c4nc(N[C@H](C)C(=O)NCCN4CCOCC4)n3n2)cc1 [Example 781, N^2-[7-bromo-2-(4-methoxyphenyl)[1,2,4]triazolo[1,5-c]quinazolin-5-yl]-N-[2-(morpholin-4-yl)ethyl]-D-alaninamide] | 
20 |  |  | 48.1 | 9.16e-08 | COc1ccc(-c2nc3c4ccccc4nc(N[C@H](C)C(=O)NCC(C)(C)N)n3n2)cc1 [Example 784, N-(2-amino-2-methylpropyl)-N^2-[2-(4-methoxyphenyl)[1,2,4]triazolo[1,5-c]quinazolin-5-yl]-D-alaninamide] | 
21 |  |  | 32.2 | 2.38e-08 | C[C@@H](Nc1nc2c(Br)cccc2c2nc(-c3cnn(C)c3)nn12)C(=O)N1CCOCC1 [Example 785, (2R)-2-{[7-bromo-2-(1-methyl-1H-pyrazol-4-yl)[1,2,4]triazolo[1,5-c]quinazolin-5-yl]amino}-1-(morpholin-4-yl)propan-1-one] | 
